From patent US12391671B2, “Allosteric EGFR inhibitors and methods of use thereof” (Dana-Farber Cancer Institute, Inc., priority 2019, dated 2025)
Where a name gives a salt, the structure may show the parent alone. Read-outs that look alike come from different tables or passages of the source.

What was measured:
EGFR L858R/T790M = EGFR L858R/T790M (Homo sapiens (Human), UniProt P00533, L858R/T790M); test: HTRF-based EGFR biochemical assay (L858R/T790M); details: 100 μM ATP, enzyme 0.02 nM
Protocol: (§1) Example 25: HTRF-Based EGFR Biochemical Assays
(§2) EGFR biochemical activity measurements were carried out using the homogeneous time-resolved fluorescence (HTRF) assay (Cisbio), inhibitors and DMSO normalizations were first dispensed to empty black low-volume 384-well plates (Corning) with 0300 digital liquid dispenser (HP). All reactions were carried out at room temperature and solutions were added to plates with a Multidrop Combi Reagent Dispenser (ThermoFisher). The reaction mixture (10 μL final volume) contained 1 μM tyrosine kinase peptide-biotin substrate and mutant EGFR in a reaction buffer (50 mM HEPES pH 7.0, 5 mM MgCl2, 1 mM MnCl2, 0.01% BSA, 2 mM TCEP, 0.1 mM NaVO4). Enzyme concentrations were adjusted to accommodate varying kinase activities (L858R 0.1 nM, L858R/T790M 0.02 nM). Enzyme reaction solution (2× concentrations, 5 μL) was added to 384-well plates containing compounds and incubated for 30 mins. Enzyme reactions were initiated with the addition of 5 μL of ATP to a final concentration of 100 μM and reacted for 20 mins. Reactions were quenched with the addition of 10 μL of phospho-tyrosine antibody-Europium(III) cryptate (1-to-180 volume ratio) and Streptavidin-XL665 (46.7 nM) in EDTA-containing detection buffer, then incubated at room temperature for 1 hour, and read with a PHERAstar plate reader (excitation=337 nm, emission=620 nm and 665 nm).

[1] = system: EGFR mutant L858R/T790M Ba/F3 cells; test: Ba/F3 cell proliferation model (Cell Titer Glo), EGFR L858R/T790M; assay type: cell-based, murine; details: 72 hours
From the text: Example 26: Ba/F3 Cell Proliferation Models
The EGFR mutant L858R and L858R/T790M Ba/F3 cells have been previously described (Zhou, W., et al. Nature 462, 2009, 1070-1074). All cell lines were maintained in RPM 1640 (Cellgro; Mediatech Inc., Herndon. CA) supplemented with 10% FBS, 100 units/mL penicillin, 100 units/mL streptomycin. The EGFR I941R mutation was introduced via site directed mutagenesis using the Quick Change Site-Directed Mutagenesis kit (Stratagene; La Jolla, CA) according to the manufacturer's instructions. All constructs were confirmed by DNA sequencing. The constructs were shuttled into the retroviral vector JP1540 using the Cre-recombination system (Agilent Technologies, Santa Clara, CA). Ba/F3 cells were then infected with retrovirus per standard protocols, as described previously (Zhou, et al, Nature 2009). Stable clones were obtained by selection in puromycin (2 μg/ml).
Growth and inhibition of growth was assessed by the Cell Titer Glo® assay (Promega, Madison, WI) and was performed according to the manufacturer's instructions. The Cell Titer Glo® assay is a luminescence-based method used to determine the number of viable cells based on quantitation of the ATP present, which is directly proportional to the amount of metabolically active cells present. Ba/F3 cells of different EGFR genotypes were exposed to compounds as a single agent or in combination with 1 μg/mL cetuximab for 72 hours and the number of cells used per experiment was determined empirically as has been previously established (Zhou, et al., Nature 2009). All experimental points were set up in triplicates in 384-well plates and all experiments were repeated at least three times. […] The curves were fitted using a non-linear regression model with a sigmoidal dose response.

EGFR L858R = EGFR L858R (Homo sapiens (Human), UniProt P00533, L858R); test: HTRF-based EGFR biochemical assay (L858R); details: 100 μM ATP, enzyme 0.1 nM
EGFR L858R, sequence (P00533 25-1210 L858R): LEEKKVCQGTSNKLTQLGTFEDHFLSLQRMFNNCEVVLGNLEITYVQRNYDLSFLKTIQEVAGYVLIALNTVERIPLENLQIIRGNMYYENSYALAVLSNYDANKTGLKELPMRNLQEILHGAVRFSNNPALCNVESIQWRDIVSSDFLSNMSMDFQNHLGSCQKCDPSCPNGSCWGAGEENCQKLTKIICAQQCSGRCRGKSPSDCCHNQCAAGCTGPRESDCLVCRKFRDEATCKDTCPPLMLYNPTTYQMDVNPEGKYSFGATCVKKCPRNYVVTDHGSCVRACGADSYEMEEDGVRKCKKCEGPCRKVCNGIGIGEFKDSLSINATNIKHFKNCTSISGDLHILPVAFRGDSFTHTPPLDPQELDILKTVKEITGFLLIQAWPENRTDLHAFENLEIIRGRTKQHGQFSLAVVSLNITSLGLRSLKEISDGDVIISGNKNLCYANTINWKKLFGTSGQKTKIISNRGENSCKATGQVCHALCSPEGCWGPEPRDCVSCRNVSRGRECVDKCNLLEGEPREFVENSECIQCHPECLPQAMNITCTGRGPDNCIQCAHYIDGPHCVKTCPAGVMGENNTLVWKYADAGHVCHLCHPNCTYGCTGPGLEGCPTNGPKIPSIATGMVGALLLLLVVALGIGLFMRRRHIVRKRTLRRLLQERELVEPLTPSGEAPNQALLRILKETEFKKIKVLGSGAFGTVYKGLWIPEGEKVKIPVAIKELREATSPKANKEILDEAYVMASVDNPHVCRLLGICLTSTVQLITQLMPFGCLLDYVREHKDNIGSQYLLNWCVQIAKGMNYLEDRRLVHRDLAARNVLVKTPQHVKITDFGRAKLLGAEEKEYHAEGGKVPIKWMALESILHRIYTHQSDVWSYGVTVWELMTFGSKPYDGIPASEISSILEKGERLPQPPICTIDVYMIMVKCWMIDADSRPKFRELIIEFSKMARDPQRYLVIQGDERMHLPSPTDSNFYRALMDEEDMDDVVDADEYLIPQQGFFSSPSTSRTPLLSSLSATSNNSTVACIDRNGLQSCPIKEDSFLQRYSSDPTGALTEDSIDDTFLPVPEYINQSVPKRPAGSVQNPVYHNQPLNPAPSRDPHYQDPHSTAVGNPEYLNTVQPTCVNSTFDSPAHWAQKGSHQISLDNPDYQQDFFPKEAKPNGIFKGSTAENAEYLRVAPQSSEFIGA
Protocol: as §1, §2

[2] = Mus musculus, BaF3, single agent, read-out: Cell IC50 BaF3 EGFR L858R/T790M
[3] = in combination with 1 μg/mL cetuximab, read-out: Cell IC50 BaF3 EGFR L858R/T790M (+cetux.)

EGFR L858R/T790M, sequence (P00533 25-1210 T790M/L858R): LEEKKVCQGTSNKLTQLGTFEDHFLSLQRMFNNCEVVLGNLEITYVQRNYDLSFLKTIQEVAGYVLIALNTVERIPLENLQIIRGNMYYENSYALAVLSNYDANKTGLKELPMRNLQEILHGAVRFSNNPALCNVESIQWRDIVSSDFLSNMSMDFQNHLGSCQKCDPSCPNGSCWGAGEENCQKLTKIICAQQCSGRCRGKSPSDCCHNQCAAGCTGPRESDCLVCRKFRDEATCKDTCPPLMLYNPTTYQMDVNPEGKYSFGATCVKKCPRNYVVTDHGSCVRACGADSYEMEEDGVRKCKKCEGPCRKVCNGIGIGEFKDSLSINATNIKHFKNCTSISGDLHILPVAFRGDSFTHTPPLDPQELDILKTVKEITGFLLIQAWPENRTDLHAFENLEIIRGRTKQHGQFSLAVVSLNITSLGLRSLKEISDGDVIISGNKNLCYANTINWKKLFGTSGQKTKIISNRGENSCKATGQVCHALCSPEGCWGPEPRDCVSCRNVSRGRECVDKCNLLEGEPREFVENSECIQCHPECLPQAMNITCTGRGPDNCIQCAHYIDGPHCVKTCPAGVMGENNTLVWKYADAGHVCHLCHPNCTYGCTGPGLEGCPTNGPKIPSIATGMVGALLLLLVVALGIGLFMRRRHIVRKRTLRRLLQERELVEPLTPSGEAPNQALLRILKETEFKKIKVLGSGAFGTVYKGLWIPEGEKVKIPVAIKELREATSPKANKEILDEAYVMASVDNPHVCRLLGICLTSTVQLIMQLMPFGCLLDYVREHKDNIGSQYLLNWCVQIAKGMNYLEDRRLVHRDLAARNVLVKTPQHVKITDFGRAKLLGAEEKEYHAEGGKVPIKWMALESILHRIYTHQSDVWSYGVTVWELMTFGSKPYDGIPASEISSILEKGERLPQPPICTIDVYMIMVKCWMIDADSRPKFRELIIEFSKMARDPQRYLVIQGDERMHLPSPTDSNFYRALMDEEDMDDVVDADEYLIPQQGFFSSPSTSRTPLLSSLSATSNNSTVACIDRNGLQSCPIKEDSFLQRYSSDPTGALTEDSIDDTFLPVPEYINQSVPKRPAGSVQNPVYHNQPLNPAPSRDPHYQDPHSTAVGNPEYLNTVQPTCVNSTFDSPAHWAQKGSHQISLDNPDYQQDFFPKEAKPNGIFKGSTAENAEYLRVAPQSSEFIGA

CN1CCC(c2ccc(-c3ccc4c(c3)C(=O)N(C(c3nc5ccccc5[nH]3)c3cc(F)ccc3O)C4)cc2F)CC1 (stereo not shown) [Compound 017, 2-[1H-Benzimidazol-2-yl-(5-fluoro-2-hydroxy-phenyl)methyl]-6-[3-fluoro-4-(1-methyl-4-piperidyl)phenyl]isoindolin-1-one; hydrochloride] was tested, and the IC50 (EGFR L858R/T790M) was 0.0004 µM, the IC50 [1, 2] was 0.26 µM and the IC50 [1, 3] was 0.006 µM. It also gave an IC50 (EGFR L858R) of 0.001 µM.
Compound Cc1cccc2[nH]c(C(c3cc(F)ccc3O)N3Cc4ccc(-c5ccc(C6CCN(C)CC6)cc5)cc4C3=O)nc12 (stereo not shown) [Compound 052, 2-[(5-fluoro-2-hydroxy-phenyl)-(4-methyl-1H-benzimidazol-2-yl)methyl]-6-[4-(1-methyl-4-piperidyl)phenyl]isoindolin-1-one; formic acid] has an IC50 (EGFR L858R/T790M) of 0.002 µM, an IC50 [1, 2] of 4.18 µM and an IC50 [1, 3] of 0.37 µM. For the same compound, the IC50 (EGFR L858R) was 0.005 µM.
CN1CCC(c2ccc(-c3ccc4c(c3)C(=O)N(C(c3nc5ccccc5[nH]3)c3cc(Cl)ccc3O)C4)cc2)CC1 (stereo not shown) [Compound 044, 2-[1H-benzimidazol-2-yl-(5-chloro-2-hydroxy-phenyl)-methyl]-6-[4-(1-methyl-4-piperidyl)phenyl]isoindolin-1-one; hydrochloride] gave an IC50 (EGFR L858R/T790M) of 0.002 µM, an IC50 [1, 2] of 1.5 µM and an IC50 [1, 3] of 0.05 µM. It also gave an IC50 (EGFR L858R) of 0.006 µM.
Work on CN(C)CCOc1ccc(-c2ccc3c(c2)C(=O)N(C(c2nc4ccccc4[nH]2)c2cc(F)ccc2O)C3)cc1 (stereo not shown) [Compound 040, 2-[1H-benzimidazol-2-yl-(5-fluoro-2-hydroxy-phenyl)methyl]-6-[4-[2-(dimethyl-amino)ethoxy]phenyl]isoindolin-1-one;hydrochloride] yielded an IC50 (EGFR L858R/T790M) of 0.002 µM, an IC50 [1, 2] of 1.57 µM and an IC50 [1, 3] of 0.01 µM. It also gave an IC50 (EGFR L858R) of 0.007 µM.
Work on CN1CCC(c2ccc(-c3ccc4c(=O)n(C(c5nc6ccccc6[nH]5)c5cc(F)ccc5O)cc(F)c4c3)cc2)CC1 (stereo not shown) [Compound 053, 2-[1H-benzimidazol-2-yl-(5-fluoro-2-hydroxy-phenyl)-methyl]-4-fluoro-6-[4-(1-methyl-4-piperidyl)phenyl]isoquinolin-1-one; hydrochloride] yielded an IC50 (EGFR L858R/T790M) of 0.001 µM, an IC50 [1, 2] of 0.56 µM and an IC50 [1, 3] of 0.005 µM. For the same compound, the IC50 (EGFR L858R) was 0.006 µM.
Work on CN1CCC(c2ccc(-c3ccc4c(c3)C(=O)N(C(c3cccc(F)c3)c3nc5cccnc5[nH]3)C4)cc2)CC1 (stereo not shown) [Compound 025] yielded an IC50 (EGFR L858R/T790M) of 0.011 µM, an IC50 [1, 2] of 3.05 µM and an IC50 [1, 3] of 0.18 µM. The IC50 (EGFR L858R) was 0.15 µM.
In the case of [2H]C(c1nc2ccccc2[nH]1)(c1cc(F)ccc1O)N1Cc2ccc(-c3ccc(C4CCN(C)CC4)cc3)cc2C1=O (stereo not shown) [Compound 036, 2-((1H-benzo[d]imidazol-2-yl)(5-fluoro-2-hydroxyphenyl)methyl-d)-6-(4-(1-methylpiperidin-4-yl)phenyl)isoindolin-1-one], the IC50 (EGFR L858R/T790M) is reported as 0.0007 µM, the IC50 [1, 2] is reported as 0.17 µM and the IC50 [1, 3] is reported as 0.007 µM. The IC50 (EGFR L858R) was 0.0026 µM.
With [2H]C1([2H])c2ccc(-c3ccc(C4CCN(C)CC4)cc3)cc2C(=O)N1C([2H])(c1nc2ccccc2[nH]1)c1cc(F)ccc1O (stereo not shown) [Compound 039, 2-((1H-Benzo[d]imidazol-2-yl)(5-fluoro-2-hydroxyphenyl)methyl-d)-6-(4-(1-methylpiperidin-4-yl)phenyl)isoindolin-1-one-3,3-d2] the IC50 (EGFR L858R/T790M) was 0.0005 µM, the IC50 [1, 2] was 0.28 µM and the IC50 [1, 3] was 0.014 µM. For the same compound, the IC50 (EGFR L858R) was 0.0029 µM.
In the case of Nc1ccc(-c2ccc(-c3ccc4c(c3)C(=O)N(C(c3nc5ccccc5[nH]3)c3cc(F)ccc3O)C4)cc2)cn1 (stereo not shown) [Compound 061, 6-[4-(6-amino-3-pyridyl)phenyl]-2-[1H-benzimidazol-2-yl-(5-fluoro-2-hydroxy-phenyl)-methyl]isoindolin-1-one; hydrochloride], the IC50 (EGFR L858R/T790M) is reported as 0.011 µM, the IC50 [1, 2] is reported as 0.79 µM and the IC50 [1, 3] is reported as 0.02 µM. The IC50 (EGFR L858R) was 0.069 µM.
CN1CCC(c2ccc(-c3ccc4ncn(C(c5nc6ccccc6[nH]5)c5cc(F)ccc5O)c(=O)c4c3F)cc2F)CC1 (stereo not shown) [Compound 007, 3-[1H-benzimidazol-2-yl-(5-fluoro-2-hydroxy-phenyl)methyl]-5-fluoro-6-[3-fluoro-4-(1-methyl-4-piperidyl)phenyl]quinazolin-4-one; hydrochloride] showed an IC50 (EGFR L858R/T790M) of 0.0004 µM, an IC50 [1, 2] of 0.52 µM and an IC50 [1, 3] of 0.009 µM. The IC50 (EGFR L858R) was 0.001 µM.
CN1CCC(c2ccc(-c3ccc4c(c3)C(=O)N(C(c3cccc(F)c3)c3nc5ccccc5[nH]3)C4)cc2)CC1 (stereo not shown) [Compound 026, 2-[1H-Benzimidazol-2-yl-(3-fluorophenyl)methyl]-6-[4-(1-methyl-4-piperidyl)phenyl]isoindolin-1-one] showed an IC50 (EGFR L858R/T790M) of 0.007 µM, an IC50 [1, 2] of 2.28 µM and an IC50 [1, 3] of 0.08 µM. It also gave an IC50 (EGFR L858R) of 0.026 µM.
For CN1CCC(c2ccc(-c3ccc4c(c3)C(=O)N(C(c3ccn[nH]3)c3cc(F)ccc3O)C4)cc2)CC1 (stereo not shown) [Compound 045, 2-[(5-fluoro-2-hydroxy-phenyl)-(1H-pyrazol-3-yl)methyl]-6-[4-(1-methyl-4-piperidyl)phenyl]-isoindolin-1-one], the IC50 (EGFR L858R/T790M) was 0.018 µM, the IC50 [1, 2] was 3.74 µM and the IC50 [1, 3] was 1.17 µM. The IC50 (EGFR L858R) was 0.032 µM.
COc1cccc2[nH]c(C(c3cc(F)ccc3O)N3Cc4ccc(-c5ccc(C6CCN(C)CC6)cc5)cc4C3=O)nc12 (stereo not shown) [Compound 051] showed an IC50 (EGFR L858R/T790M) of 0.001 µM, an IC50 [1, 2] of 3.92 µM and an IC50 [1, 3] of 1.05 µM. For the same compound, the IC50 (EGFR L858R) was 0.01 µM.
COc1ccc2[nH]c(C(c3cc(F)ccc3O)N3Cc4ccc(-c5ccc(C6CCN(C)CC6)cc5)cc4C3=O)nc2c1 (stereo not shown) [Compound 048, 2-[(5-fluoro-2-hydroxy-phenyl)-(5-methoxy-1H-benzimidazol-2-yl)methyl]-6-[4-(1-methyl-4-piperidyl)phenyl]isoindolin-1-one; formic acid] was tested, and the IC50 (EGFR L858R/T790M) was 0.004 µM, the IC50 [1, 2] was 4.76 µM and the IC50 [1, 3] was 0.76 µM. The IC50 (EGFR L858R) was 0.035 µM.
For CN(C)CCN(C)c1ccc(-c2ccc3c(c2)C(=O)N(C(c2nc4ccccc4[nH]2)c2cc(F)ccc2O)C3)cc1 (stereo not shown) [Compound 041, 2-[1H-benzimidazol-2-yl-(5-fluoro-2-hydroxy-phenyl)-methyl]-6-[4-[2-(dimethylamino)-ethyl-methyl-amino]phenyl]-isoindolin-1-one; hydrochloride], the IC50 (EGFR L858R/T790M) was 0.002 µM, the IC50 [1, 2] was 0.95 µM and the IC50 [1, 3] was 0.02 µM. The IC50 (EGFR L858R) was 0.005 µM.
For Cc1ccc2[nH]c(C(c3cc(F)ccc3O)N3Cc4ccc(-c5ccc(C6CCN(C)CC6)cc5)cc4C3=O)nc2c1 (stereo not shown) [Compound 050, 2-[(5-fluoro-2-hydroxy-phenyl)-(5-methyl-1H-benzimidazol-2-yl)methyl]-6-[4-(1-methyl-4-piperidyl)phenyl]isoindolin-1-one; formic acid], the IC50 (EGFR L858R/T790M) was 0.002 µM, the IC50 [1, 2] was 3.85 µM and the IC50 [1, 3] was 0.85 µM. The IC50 (EGFR L858R) was 0.021 µM.
COc1ccc(F)cc1C(c1nc2ccccc2[nH]1)n1cc2ccc(-c3ccc(C4CCN(C)CC4)cc3)c(F)c2n1 (stereo not shown) [Compound 035, 2-[1H-benzimidazol-2-yl-(5-fluoro-2-methoxy-phenyl)methyl]-7-fluoro-6-[4-(1-methyl-4-piperidyl)phenyl]indazole] gave an IC50 (EGFR L858R/T790M) of 0.042 µM, an IC50 [1, 2] of 3.6 µM and an IC50 [1, 3] of 0.53 µM. The IC50 (EGFR L858R) was 0.507 µM.
For CN1CCC(c2ccc(-c3ccc4c(n3)C(=O)N(C(c3nc5ccccc5[nH]3)c3cc(F)ccc3O)C4)cc2)CC1 (stereo not shown) [Compound 028, 6-[1H-Benzimidazol-2-yl-(5-fluoro-2-hydroxy-phenyl)methyl]-2-[4-(1-methyl-4-piperidyl)phenyl]-5H-pyrrolo[3,4-b]pyridin-7-one], the IC50 (EGFR L858R/T790M) was 0.0003 µM, the IC50 [1, 2] was 1.36 µM and the IC50 [1, 3] was 0.03 µM. It also gave an IC50 (EGFR L858R) of 0.002 µM.
With CN1CCC(F)(c2ccc(-c3ccc4c(c3)C(=O)N(C(c3nc5ccccc5[nH]3)c3cc(F)ccc3O)C4)cc2)CC1 (stereo not shown) [Compound 016, 2-[1H-Benzimidazol-2-yl-(5-fluoro-2-hydroxy-phenyl)methyl]-6-[4-(4-fluoro-1-methyl-4-piperidyl)phenyl]isoindolin-1-one; hydrochloride] the IC50 (EGFR L858R/T790M) was 0.0007 µM, the IC50 [1, 2] was 0.59 µM and the IC50 [1, 3] was 0.01 µM. The IC50 (EGFR L858R) was 0.003 µM.
